For 34 compounds, AC50 results are on record in patent publication US8889667B2 (Agios Pharmaceuticals, Inc, priority 2010, dated 2014).

This experiment concerns the target PKM2 (Homo sapiens, UniProt P14618). The experiment is described as follows: PKM2 Assay (activation, LDH-coupled, absorbance at 340 nm). The class given is biochemical. The method, then: • PKM2 stock enzyme solution was diluted in Reaction Buffer • 2 μL of compound was added into each well first, and then 180 μL of the Reaction Mix was added. • Reaction mixture with compound (without ADP) was incubated for 30 minutes at 4° C. • Plates were re-equilibrated to room temperature prior to adding 20 μL ADP to initiate the reaction. • Reaction progress was measured as changes in absorbance at 340 nm wavelength at room temperature (25° C.) Reaction Mix: PKM2 (50 ng/well), ADP (0.7 mM), PEP (0.15 mM), NADH (180 μM), LDH (2 units) in Reaction Buffer Reaction Buffer: 100 mM KCl, 50 mM Tris pH 7.5, 5 mM MgCl2, 1 mM DTT, 0.03% BSA.
Representative compounds of the invention were tested for their ability to activate PKM2 using the above assay. For simplicity, the activation activity of these compounds is represented as an AC50 in Tables 4 and 5 and throughout the application. […] “B” refers to an activator of PKM2 with an EC50 between 100 nM and 500 nM. “C” refers to an activator of PKM2 with an EC50 between 500 nM and 1000 nM. “D” refers to an activator of PKM2 with an EC50 between 1 μM and 20 μM. “E” refers a compound whose activation of PKM2 was not measurable. “N/C” refers to AC50 data not available.

Chain of PKM2 (P14618 whole entry): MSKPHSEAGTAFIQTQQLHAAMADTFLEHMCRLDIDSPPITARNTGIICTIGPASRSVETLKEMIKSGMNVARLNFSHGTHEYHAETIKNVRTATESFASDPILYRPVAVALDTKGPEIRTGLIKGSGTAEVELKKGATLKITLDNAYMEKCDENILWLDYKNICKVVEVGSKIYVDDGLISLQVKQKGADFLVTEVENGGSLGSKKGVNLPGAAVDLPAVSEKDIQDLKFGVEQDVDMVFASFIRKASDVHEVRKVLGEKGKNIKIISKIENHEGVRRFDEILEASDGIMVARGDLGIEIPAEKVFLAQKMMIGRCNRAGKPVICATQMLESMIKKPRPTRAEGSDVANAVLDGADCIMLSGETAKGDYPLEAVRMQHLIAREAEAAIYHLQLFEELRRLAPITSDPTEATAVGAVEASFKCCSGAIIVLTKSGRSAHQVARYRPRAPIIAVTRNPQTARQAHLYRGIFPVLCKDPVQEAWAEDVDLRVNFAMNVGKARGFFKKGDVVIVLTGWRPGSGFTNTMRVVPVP

For the compound `O=C(c1ccc(NS(=O)(=O)c2cccc3cccnc23)c(OC(F)(F)F)c1)N1CCN(Cc2ncc[nH]2)CC1` [Compound 380, N-(4-(4-((1H-imidazol-2-yl)methyl)piperazine-1-carbonyl)-2-(trifluoromethoxy)phenyl)quinoline-8-sulfonamide], the AC50 (Table 5) lay within 100 to 500 nM.

Consider `O=C(c1ccc(NS(=O)(=O)c2cccc3cccnc23)c(OC(F)(F)F)c1)N1CCN(Cc2ccccc2F)CC1` [Compound 335, N-(4-(4-(2-fluorobenzyl)piperazine-1-carbonyl)-2-(trifluoromethoxy)phenyl)quinoline-8-sulfonamide], for which the AC50 (Table 5) lay within 100 to 500 nM.

In the case of `O=C(c1ccc(NS(=O)(=O)c2cccc3cccnc23)cc1)N1CCN(C(=O)c2nccs2)CC1` [Compound 371, N-(4-(4-(thiazole-2-carbonyl)piperazine-1-carbonyl)phenyl)quinoline-8-sulfonamide], the AC50 (Table 5) was less than 100 nM.

In the case of `C[C@H]1CN(Cc2cc(F)cc(F)c2F)CCN1C(=O)c1ccc(NS(=O)(=O)c2cccc3cccnc23)cc1` [Compound 137, (S)—N-(4-(2-methyl-4-(2,3,5-trifluorobenzyl)piperazine-1-carbonyl)phenyl)quinoline-8-sulfonamide], the AC50 (Table 4) is less than 100 nM.

Compound `O=C(c1ccc(NS(=O)(=O)c2cccc3cccnc23)cc1)N1CCN(CC2CC2)C[C@@H]1c1ccccc1` [Compound 180] came in with an AC50 (Table 4) of 100 to 500 nM.

As for “N-(4-(3,5-dimethylpiperazine-1-carbonyl)phenyl)quinoline-8-sulfonamide [Compound 104]”, the AC50 (Table 4) fell in the range of 100 to 500 nM.

The compound `CC[C@H]1CN(C(C)c2cc(F)cc(F)c2)CCN1C(=O)c1ccc(NS(=O)(=O)c2cccc3cccnc23)cc1` (stereo partly drawn) [Compound 161, N-(4-((2S)-4-(1-(3,5-difluorophenyl)ethyl)-2-ethylpiperazine-1-carbonyl)phenyl)quinoline-8-sulfonamide] returned an AC50 (Table 4) of less than 100 nM.

For the setting “Table 5”, `C[C@H](c1ccccc1)N1CCN(C(=O)c2ccc(NS(=O)(=O)c3cccc4cccnc34)cc2)CC1` [Compound 388, (R)—N-(4-(4-(1-phenylethyl)piperazine-1-carbonyl)phenyl)quinoline-8-sulfonamide] gave an AC50 of less than 100 nM.

Turning to `CC1CN(Cc2cc(F)cc(F)c2F)CC(C)N1C(=O)c1ccc(NS(=O)(=O)c2cccc3cccnc23)cc1` (stereo not shown) [Compound 200, N-(4-(2,6-dimethyl-4-(2,3,5-trifluorobenzyl)piperazine-1-carbonyl)phenyl)quinoline-8-sulfonamide], the AC50 (Table 4) was less than 100 nM.

`COc1cc(NS(=O)(=O)c2cccc3cccnc23)ccc1C(=O)N1CCN(C(C)(C)c2ccccc2)CC1` [Compound 355, N-(3-methoxy-4-(4-(2-phenylpropan-2-yl)piperazine-1-carbonyl)phenyl)quinoline-8-sulfonamide]: where the note is “Table 5”, the AC50 is less than 100 nM.

`O=C(c1ccc(NS(=O)(=O)c2cccc3cccnc23)cc1)N1CCN(C(=O)c2cn[nH]c2)CC1` [Compound 372] displayed an AC50 (Table 5) of less than 100 nM.

`O=C(c1ccc(NS(=O)(=O)c2cccc3cccnc23)cc1F)N1CCN(Cc2ccc(Cl)c(F)c2)CC1` [Compound 422, N-(4-(4-(4-chloro-3-fluorobenzyl)piperazine-1-carbonyl)-3-fluorophenyl)quinoline-8-sulfonamide] returned an AC50 (Table 5) of 100 to 500 nM.

Regarding `COc1cccc(CN2CCN(C(=O)c3ccc(NS(=O)(=O)c4cccc5cccnc45)cc3)[C@@H](C)C2)c1OC` [Compound 146, (S)—N-(4-(4-(2,3-dimethoxybenzyl)-2-methylpiperazine-1-carbonyl)phenyl)quinoline-8-sulfonamide], the AC50 (Table 4) fell in the range of 1000 to 20000 nM.

Turning to `O=C(c1ccc(NS(=O)(=O)c2cccc3cccnc23)c(OC(F)(F)F)c1)N1CCN(Cc2cnccc2C(F)(F)F)CC1` [Compound 366, N-(2-(trifluoromethoxy)-4-(4-((4-(trifluoromethyl)pyridin-3-yl)methyl)piperazine-1-arbonyl)phenyl)quinoline-8-sulfonamide], the AC50 (Table 5) was 100 to 500 nM.

In turn, `CC(c1c(F)cccc1F)N1CCN(C(=O)c2ccc(NS(=O)(=O)c3cccc4cccnc34)cc2)[C@H](C)C1` (stereo partly drawn) [Compound 159, N-(4-((2R)-4-(1-(2,6-difluorophenyl)ethyl)-2-methylpiperazine-1-carbonyl)phenyl)quinoline-8-sulfonamide] had an AC50 (Table 4) of 100 to 500 nM.

For `O=C(c1ccc(NS(=O)(=O)c2cccc3cccnc23)c(OC(F)(F)F)c1)N1CCN(C(=O)c2cocn2)CC1` [Compound 327], where the note is “Table 5”, the AC50 lay in the range of 500 to 1000 nM.

`COc1cc(C(=O)N2CCN(C3(c4ccc(F)cc4)CC3)CC2)ccc1NS(=O)(=O)c1cccc2cccnc12` [Compound 400, N-(4-(4-(1-(4-fluorophenyl)cyclopropyl)piperazine-1-carbonyl)-2-methoxyphenyl)quinoline-8-sulfonamide]: the AC50 (Table 5) was less than 100 nM.

Regarding `O=C(c1ccc(NS(=O)(=O)c2cccc3cccnc23)cc1)N1CCN(C[C@@H]2CCOC2)CC1` [Compound 445, (R)— and (S)—N-(4-(4-((tetrahydrofuran-3-yl)methyl)piperazine-1-carbonyl)phenyl)quinoline-8-sulfonamide], for the setting “Table 5”, the AC50 is less than 100 nM.

In turn, `O=C(c1ccc(NS(=O)(=O)c2cccc3cccnc23)cc1)N1C2CCC1CN(Cc1ccccc1)C2` [Compound 213] registered an AC50 (Table 4) of less than 100 nM.

Compound `C[C@@H]1CN(C(=O)c2ccc(NS(=O)(=O)c3cccc4cccnc34)cc2)CCN1C(=O)c1ccccn1` [Compound 102] showed an AC50 (Table 4) of 100 to 500 nM.

For the compound `O=C(Cc1ccccc1F)N1CCN(C(=O)c2ccc(NS(=O)(=O)c3cccc4cccnc34)c(OC(F)(F)F)c2)CC1` [Compound 361], where the note is “Table 5”, the AC50 is 500 to 1000 nM.

Consider `C[C@@H]1CN(CC2CCCCC2)CCN1C(=O)c1ccc(NS(=O)(=O)c2cccc3cccnc23)cc1` [Compound 151, (R)—N-(4-(4-(cyclohexylmethyl)-2-methylpiperazine-1-carbonyl)phenyl)quinoline-8-sulfonamide], for which, where the note is “Table 4”, the AC50 is less than 100 nM.

`CC(c1cc(F)cc(F)c1)N1CCN(C(=O)c2ccc(NS(=O)(=O)c3cccc4cccnc34)cc2)[C@@H](C)C1` (stereo partly shown) [Compound 170] displayed a concentration at half-maximal activity (AC50) (Table 4) of 100 to 500 nM.

The compound `O=C(c1ccc(NS(=O)(=O)c2cccc3cccnc23)c(OC(F)(F)F)c1)N1CCN(C2(c3ccccc3)CC2)CC1` [Compound 353, N-(4-(4-(1-phenylcyclopropyl)piperazine-1-carbonyl)-2-(trifluoromethoxy)phenyl)quinoline-8-sulfonamide] gave an AC50 (Table 5) of 500 to 1000 nM.

For `O=C(c1ccc(NS(=O)(=O)c2cccc3cccnc23)c(OC(F)(F)F)c1)N1CCN(Cc2ncccc2C(F)(F)F)CC1` [Compound 309, N-(2-(trifluoromethoxy)-4-(4-((3-(trifluoromethyl)pyridin-2-yl)methyl)piperazine-1-carbonyl)phenyl)quinoline-8-sulfonamide], the AC50 (Table 5) lay within 1000 to 20000 nM.

For the setting “Table 4”, `CC(c1c(F)cc(F)cc1F)N1CCN(C(=O)c2ccc(NS(=O)(=O)c3cccc4cccnc34)cc2)[C@@H](C)C1` (stereo partly shown) [Compound 172] returned an AC50 of 100 to 500 nM.

In the case of `O=C(c1ccc(NS(=O)(=O)c2cccc3cccnc23)cc1F)N1CCN(CC2CC2)CC1` [Compound 424, N-(4-(4-(cyclopropylmethyl)piperazine-1-carbonyl)-3-fluorophenyl)quinoline-8-sulfonamide], for the setting “Table 5”, the AC50 lay within 100 to 500 nM.

In turn, `CC1CN(CC2CCCCC2)CC(C)N1C(=O)c1ccc(NS(=O)(=O)c2cccc3cccnc23)cc1` (stereo not shown) [Compound 198, N-(4-(4-(cyclohexylmethyl)-2,6-dimethylpiperazine-1-carbonyl)phenyl)quinoline-8-sulfonamide] gave an AC50 (Table 4) of 100 to 500 nM.

For `COc1cc(C(=O)N2CCN(C(=O)c3ccc(F)c(F)c3)CC2)ccc1NS(=O)(=O)c1cccc2cccnc12` [Compound 319, N-(4-(4-(3,4-difluorobenzoyl)piperazine-1-carbonyl)-2-methoxyphenyl)quinoline-8-sulfonamide], the AC50 (Table 5) fell in the range of 100 to 500 nM.

For `C[C@@H]1CN(Cc2cc(F)cc(F)c2)CCN1C(=O)c1ccc(NS(=O)(=O)c2cccc3cccnc23)cc1` [Compound 119, (R)—N-(4-(4-(3,5-difluorobenzyl)-2-methylpiperazine-1-carbonyl)phenyl)quinoline-8-sulfonamide], the AC50 (Table 4) is less than 100 nM.

For `O=C(c1ccncc1)N1CCN(C(=O)c2ccc(NS(=O)(=O)c3cccc4cccnc34)c(OC(F)(F)F)c2)CC1` [Compound 363], under “Table 5”, the AC50 was 100 to 500 nM.

In turn, `O=C(c1ccc(NS(=O)(=O)c2cccc3cccnc23)cc1F)N1CCN(Cc2cc(F)c(F)c(F)c2)CC1` [Compound 423, N-(3-fluoro-4-(4-(3,4,5-trifluorobenzyl)piperazine-1-carbonyl)phenyl)quinoline-8-sulfonamide] had an AC50 (Table 5) of less than 100 nM.

For the setting “Table 4”, `CC1CN(Cc2c(F)cc(F)cc2F)CC(C)N1C(=O)c1ccc(NS(=O)(=O)c2cccc3cccnc23)cc1` (stereo not shown) [Compound 202, N-(4-(2,6-dimethyl-4-(2,4,6-trifluorobenzyl)piperazine-1-carbonyl)phenyl)quinoline-8-sulfonamide] came in with a half-maximal activity concentration (AC50) of 100 to 500 nM.

Turning to `CC(C)(C(=O)N1CCN(C(=O)c2ccc(NS(=O)(=O)c3cccc4cccnc34)c(OC(F)(F)F)c2)CC1)c1ccc(F)cc1` [Compound 362], the AC50 (Table 5) is 100 to 500 nM.

As usually defined, the AC50 is the concentration giving half of the maximal activity seen.
